Measured values published in patent US8367632B2, “Methods for reverting methylation by targeting methyltransferases” (Ohio State University Research Foundation, priority 2007, dated 2013).

Columns and labels:
Assay type in all cases: cell-based, human
[1] = test system: DNMT3A 3′UTR; assay: Luciferase reporter assay for targeting DNMT 3′UTRs (DNMT3A); details: A549 cells, 100 nM precursor miR, 24 h after transfection, with respect to the scrambled oligonucleotide
Description: (§1) To validate these miRNA-target interactions in vivo, the DNMT3A and DNTM3B complementary sites were cloned into the 3′UTR of the firefly luciferase gene and co-transfected with miR-29a, mi-R29b or miR-29c in […] (NSCLC) cells.
(§2) Luciferase reporter assay for targeting DNMT 3′UTRs. For luciferase reporter experiments a DNMT3A 3′UTR segment of 979 bp and a DNMT3B 3′UTR segment of 978 bp were amplified by PCR from human genomic DNA and inserted into the pGL3-control vector with SV40 promoter (Promega), using the XbaI site immediately […] from the stop codon of luciferase. The following sets of primers were used to generate specific fragments:
The amplified 3′UTR of DNMT3A contains an XbaI restriction site in position 583, so we cloned separately the upstream 3′UTR (DNMT3A 3′-UTRup=583 bp) and the downstream fragment (DNMT3A 3′-UTRdown=396 bp) into the pGL3 vectors. […]
A549 cells were co-transfected in 12-well plates by using Lipofectamine 2000 reagent (Invitrogen), according to the manufacturer's protocol, with 0.4 μg of the firefly luciferase report vector and 0.08 μg of the control vector containing Renilla luciferase pRL-TK vector (Promega). […] Firefly and Renilla luciferase activities were measured consecutively by using dual-luciferase assays (Promega), 24 h after the transfection. […]

[2] = test system: DNMT3B 3′UTR; assay: Luciferase reporter assay for targeting DNMT 3′UTRs (DNMT3B); details: A549 cells, 100 nM precursor miR, 24 h after transfection, with respect to the scrambled oligonucleotide
Description: as §1
as §2, with “fragments: […]” for “fragments:”
A549 cells were co-transfected in 12-well plates by using Lipofectamine 2000 reagent (Invitrogen), according to the manufacturer's protocol, with 0.4 μg of the firefly luciferase report vector and 0.08 μg of the control vector containing Renilla luciferase pRL-TK vector (Promega). For each well, 100 nM (final) of precursor miR-29a, 29b-1, 29c or scrambled miR (Ambion) was used. Firefly and Renilla luciferase activities were measured consecutively by using dual-luciferase assays (Promega), 24 h after the transfection. The experiments were performed in triplicate.

[3] = test system: FHIT mRNA; assay: FHIT mRNA level by qRT-PCR; details: A549 cells, 48 h after transfection
Protocol: (§3) To characterize effects of the methylation changes on gene expression, the mRNA expression levels of two TSGs, FHIT and WWOX, which are frequently silenced by promoter methylation in lung cancer^14 were analyzed.
(§4) Quantitative RT-PCR. Quantitative RT-PCR (qRT-PCR) analysis for miRNA s was performed in triplicate with the TaqMan MicroRNA assays kit (Applied Biosystems, Foster City, Calif.), according to the manufacturer's instructions. 18S RNA was used for normalization; qRT-PCR analyses for other genes of interest were performed as previously described. RNA was reverse transcribed to cDNA with gene-specific primers and IQ SYBR Green Supermix (Biorad, Hercules, Calif.). GAPDH served as normalization control. For the silencing of miR-29s, A549 and H1299 cells were transfected in 6-well plates by using Lipofectamine 2000 reagent (Invitrogen), according to the manufacturer's protocol, with 100 nM (final) of antisense miR-29a, 29b-1, 29c or scrambled antisense miR (Fidelity Systems, Gaithersburg, Md.).

[4] = test system: WWOX mRNA; assay: WWOX mRNA level by qRT-PCR; details: A549 cells, 48 h after transfection
Protocol: as §3, §4

Substance	luciferase activity (DNMT3A complementary site in 3′UTR of firefly luciferase) [1]	luciferase activity (DNMT3B complementary site in 3′UTR of firefly luciferase) [2]	increase of FHIT expression (mRNA) [3] [%]	increase of WWOX mRNA level [4] [%]
miR-29a: microRNA of the miR-29 family, SEQ ID NO: 1; transfected as precursor miR-29a (Ambion) (UAGCACCAUCUGAAAUCGGUU; listed as RNA, chemistry not given here)	significantly reduced	significantly reduced	~65	~40
miR-29c: microRNA of the miR-29 family, SEQ ID NO: 3; transfected as precursor miR-29c (Ambion) (UAGCACCAUUUGAAAUCGGU; listed as RNA, chemistry not given here)	significantly reduced	significantly reduced	~74	
